Test results reported in US8013016B2, “Use of acetyl L-carnitine for the treatment of fibromyalgic syndrome” (Sigma-Tau Industrie Farmaceutiche Riunite S.p.A., priority 2004, dated 2011).

Tests used:
[1] = tested on: patients with fibromyalgic syndrome; test: Multicentre, randomized, placebo-controlled, double-blind clinical trial: evoked pain at ACR tender points (Pressure Threshold Meter algometer); type: in vivo, human; conditions: for Mean variation compared to baseline (evoked pain at ACR tender points, algometer): N = 42
Protocol: (§1) A multicentre, randomized, placebo-controlled, double-blind clinical trial was conducted, the aim of which was to evaluate the efficacy of acetyl L-carnitine in patients with fibromyalgic syndrome.
For the evaluation of the efficacy of the compound according to the present invention evoked pain was monitored (as measured with the “Pressure Threshold Meter” algometer) in the osteoarticular regions indicated by “The American College of Rheumatology” (ACR) as being “tender points” characteristic of fibromyalgia syndrome. [WOLFE F, SMYTHE H A, YUNUS M B, et al. The American College of Rheumatology Criteria for the classification of fibromyalgia: report of the multicenter criteria committee; Arthritis Rheum 1990; 33(2): 160-172].
The patients included in the trial were patients of either gender aged from 25 to 65 years, who matched up to the above-mentioned American College of Rheumatology diagnostic criteria for fibromyalgia syndrome.
The diagnostic criteria for fibromyalgic syndrome had to be confirmed by the presence of all four of the following conditions: • bilateral diffuse pain in the axial skeleton; • bilateral diffuse pain in the upper limbs; • bilateral diffuse pain in the lower limbs; • pain located in 11 or more of the 18 anatomical regions listed in the map of tender points (ACR tender points) evoked with a standardised pressure manoeuvre.
Patients with any one of the following conditions were not recruited into the trial: • presence of infections or inflammatory processes affecting the osteoarticular or tegumental apparatus; • history or presence of clinically important osteoarticular disease capable of confounding the evaluation of the study treatments (e.g. history of trauma); • previous orthopaedic surgery, spondyloarthrosis, connectivitis etc.; • clinical or laboratory evidence of dysthyroidism; • presence of systemic diseases (diabetes, kidney, cardiovascular and respiratory disease, psychiatric illness) or major pathological conditions capable of interfering with the evaluation of the study treatments; • continuous use of anti-inflammatory steroids during the last 3 months prior to the trial; • recent initiation of oestrogen-progestogen hormone replacement therapy (<1 year); • therapy with antidepressant drugs during the last 6 months prior to the trial; • therapy with non-steroidal anti-inflammatory drugs during the last 3 days prior to the trial; • therapy with analgesic drugs during the last 7 days prior to the trial; • participation in a clinical trial during the previous 6 months; • pregnant women, breastfeeding women, or women of childbearing age not adopting an adequate contraceptive method.
Acetyl L-carnitine was administered for a period of 10 consecutive weeks at a dose of 1,500 mg/day. […]

[2] = tested on: patients with fibromyalgic syndrome; test: Same clinical trial: secondary clinical parameters assessed with visual analogue scales; type: in vivo, human; conditions: end of the treatment period (10 weeks), 1,500 mg/day; P<0.05
Protocol: as §1
Also monitored were additional secondary parameters which will be discussed later.
Acetyl L-carnitine was administered for a period of 10 consecutive weeks at a dose of 1,500 mg/day.
During the first two weeks it was administered at the dose of 500 mg by the intramuscular route (i.m.) and 500 mg (twice daily) by the oral route (os).
Over the following eight weeks acetyl L-carnitine was administered orally at doses of 500 mg three times daily.

CC(=O)O[C@H](CC(=O)[O-])C[N+](C)(C)C [Acetyl L-carnitine, acetyl L-carnitine]
Improvement in pain evoked in the osteoarticular regions (ACR tender points) as compared to the control group ([1]; end of therapy (10 weeks), 1,500 mg/day, vs placebo): statistically significant improvement
Mean variation compared to baseline (evoked pain at ACR tender points, algometer) ([1]; visit 2 weeks, 1,500 mg/day (500 mg i.m. + 500 mg twice daily os), placebo 0.16 (0.39)): 0.24 (0.64)
Mean variation compared to baseline (evoked pain at ACR tender points, algometer) ([1]; visit 6 weeks, 1,500 mg/day (first 2 weeks i.m. + os, then 500 mg three times daily os), placebo 0.45 (0.57)): 0.55 (0.64)
Mean variation compared to baseline (evoked pain at ACR tender points, algometer) ([1]; visit 10 weeks (end of therapy), 1,500 mg/day, placebo 0.34 (0.66), P<0.05 Student's t-test): 0.71 (0.71)
General well-being (visual analogue scale) [2]: statistically significant improvements
Mental health (visual analogue scale) [2]: statistically significant improvements
Physical health in general (visual analogue scale) [2]: statistically significant improvements
